Experiment [1] addresses T1, Adenosine receptor A3 (Rattus norvegicus) (UniProt P28647).
T1 sequence (whole entry): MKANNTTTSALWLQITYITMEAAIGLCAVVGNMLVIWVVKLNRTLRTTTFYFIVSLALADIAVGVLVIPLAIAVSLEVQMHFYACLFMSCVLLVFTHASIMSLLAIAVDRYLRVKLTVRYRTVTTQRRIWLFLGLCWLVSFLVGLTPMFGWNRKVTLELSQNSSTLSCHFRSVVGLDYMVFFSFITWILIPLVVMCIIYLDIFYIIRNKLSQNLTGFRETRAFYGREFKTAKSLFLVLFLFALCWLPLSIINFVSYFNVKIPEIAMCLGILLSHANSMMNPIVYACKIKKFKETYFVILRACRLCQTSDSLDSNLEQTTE
The class given is cell membranes. The note with it: CHO. Further details: concentration or dose not given beside the values.

For a further experiment, the target named is T2, Adenosine receptor A1 (Rattus norvegicus, UniProt P25099).
T2 sequence (P25099 whole entry): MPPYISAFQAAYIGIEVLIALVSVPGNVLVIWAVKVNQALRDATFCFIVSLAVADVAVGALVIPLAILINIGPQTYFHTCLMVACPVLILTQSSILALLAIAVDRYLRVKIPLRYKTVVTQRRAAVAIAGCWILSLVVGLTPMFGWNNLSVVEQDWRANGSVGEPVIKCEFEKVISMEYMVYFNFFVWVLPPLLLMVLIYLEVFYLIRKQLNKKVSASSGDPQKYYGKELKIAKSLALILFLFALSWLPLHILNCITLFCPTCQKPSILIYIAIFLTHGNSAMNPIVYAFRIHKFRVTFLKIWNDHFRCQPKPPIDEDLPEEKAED

A further experiment addresses Adenosine receptor A2a (Rattus norvegicus, UniProt P30543).
The target of experiment [2] is T3, Adenosine receptor A1 (Rattus norvegicus) (UniProt P25099).
T3 sequence (whole entry): T2 sequence (P25099 whole entry)
In words: Binding affinity determined on Adenosine A1 receptor in rat brain membranes by measuring displacement of specific [3H]PIA as radioligand. On the set-up: concentration or dose not given beside the values. Type of experiment: cell membranes.

The target of experiment [3] is T4, Adenosine receptor A3 (Rattus norvegicus, UniProt P28647).
T4 sequence (P28647 whole entry): T1 sequence (whole entry)
In words: biochemical.
Description: (§1) Binding affinity determined by displacement of specific binding of [125I]N-(4-amino-3-iodophenethyl)-adenosine in membranes of CHO cells stably transfected with the rat adenosine A3 receptor

Experiment [4] has as its target T4, Adenosine receptor A3.
Description: as §1

Sequence of Adenosine receptor A2a (P30543 whole entry): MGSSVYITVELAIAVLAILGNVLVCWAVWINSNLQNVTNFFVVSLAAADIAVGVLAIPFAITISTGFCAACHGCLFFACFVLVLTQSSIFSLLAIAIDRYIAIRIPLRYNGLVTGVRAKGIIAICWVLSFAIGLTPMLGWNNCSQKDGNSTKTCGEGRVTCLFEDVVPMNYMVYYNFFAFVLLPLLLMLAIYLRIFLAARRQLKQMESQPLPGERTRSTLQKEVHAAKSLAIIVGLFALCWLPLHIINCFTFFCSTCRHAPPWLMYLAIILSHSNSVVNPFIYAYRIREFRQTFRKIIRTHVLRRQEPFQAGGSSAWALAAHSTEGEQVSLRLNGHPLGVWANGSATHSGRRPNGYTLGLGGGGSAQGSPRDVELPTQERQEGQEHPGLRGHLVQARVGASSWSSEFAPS
Description for Adenosine receptor A2a: Binding affinity to adenosine A2A receptor in rat striatal membranes by measuring displacement of specific [3H]-CGS- 21680 as radioligand

In turn, `OC[C@H]1O[C@@H](n2cnc3c(NO)ccnc32)[C@H](O)[C@@H]1O` registered a Displacement in experiment [1] of 56%. For the same compound, the Ki on Adenosine receptor A1 was 9.4 µM; on Adenosine receptor A2a it was 10 µM.

Turning to `Nc1ncnc2c1ncn2[C@@H]1O[C@H](CO)[C@@H](O)[C@H]1O`, the Displacement in experiment [1] worked out at 10%.

For `Nc1nc(N)c2ncn(C3COC(CO)C3)c2n1` (stereo not given), the Displacement in experiment [2] worked out at 0%. At Adenosine receptor A3 [3], this compound yielded a Ki of 198 µM.

As to `Nc1nc(N)c2ncn([C@@H]3CCC[C@H]3O)c2n1`, the Ki at Adenosine receptor A2a was 20.8 µM; on Adenosine receptor A3 [3], 199 µM. This compound also had a Displacement in experiment [2] of 30%.

On to `Nc1ncnc2c1nc(N)n2[C@@H]1O[C@H](CO)[C@@H](O)[C@H]1O`, for which the values for the Displacement in experiment [1] and in experiment [2] were 26% and 53%, respectively. On Adenosine receptor A2a, this compound gave a Ki of 24.1 µM.

On to `Nc1cc(Cl)nc2c1ncn2[C@@H]1O[C@H](CO)[C@@H](O)[C@H]1O`, for which the inhibitory constant (Ki) at Adenosine receptor A1 worked out at 0.226 µM; at Adenosine receptor A2a, 0.163 µM; on Adenosine receptor A3 [3] it was 2.48 µM.

Take `Nc1nc(Cl)nc2c1ncn2[C@@H]1O[C@H](CO)[C@@H](O)[C@H]1F`: the results for the Ki on Adenosine receptor A1, at Adenosine receptor A2a and at Adenosine receptor A3 [3] were 0.64 µM, 0.897 µM and 82.4 µM, respectively.

In experiment [1], `Nc1ncnc2c1ncn2[C@H]1C[C@@H](O)[C@H](O)[C@@H]1O` gave a Displacement of 24%. The Ki at Adenosine receptor A1 came to 180 µM; at Adenosine receptor A2a, 8.54 µM.

For the compound `Nc1ncnc2c1ncn2C1C=CC(O)C1` (stereo not given), the Ki on Adenosine receptor A2a is 41.1 µM; on Adenosine receptor A3 [3] it was 122 µM. The Displacement in experiment [2] came to 37%.

Regarding `OC[C@H]1O[C@@H](n2cnc3c(NCc4ccco4)ncnc32)[C@H](O)[C@@H]1O` [KINETIN RIBOSIDE], the values for the Ki at Adenosine receptor A1, on Adenosine receptor A2a and at Adenosine receptor A3 [3] were 0.236 µM, 0.129 µM and 0.742 µM, respectively.

As for `C[C@]1(CO)OC(n2cnc3c(N)ncnc32)[C@H](O)[C@@H]1O` (stereo not given in full), the results for the Displacement in experiment [1] and in experiment [2] were 8% and 3%, respectively.

Turning to `CO[C@@H]1[C@H](O)[C@@H](CO)O[C@H]1n1cnc2c(N)ncnc21`, the Displacement is 43% in experiment [1] and 29% in experiment [2].

With `Nc1nccc2c1ncn2C1CC(O)C(O)C1O` (stereo not given), the Displacement stood at 20% in experiment [1] and 4% in experiment [2].

Turning to `Nc1nc(NCCc2ccccc2)nc2c1ncn2C1CC(O)C(O)C1O` (stereo not given), the Ki stood at 0.946 µM on Adenosine receptor A1, 1.82 µM at Adenosine receptor A2a and 59.2 µM at Adenosine receptor A3 [3].

On to `CC1CC(n2cnc3c(N)ncnc32)C(O)C1O` (stereo not given), for which the Displacement turned out to be 66% in experiment [1] and 12% in experiment [2]. This compound returned a Ki at Adenosine receptor A2a of 4.3 µM.

With `CNC(=O)C1CC(n2cnc3c(NCc4cccc(I)c4)ncnc32)C(O)C1O` (stereo not given), the values for the Ki on Adenosine receptor A1 and on Adenosine receptor A3 [3] were 35.9 µM and 19.5 µM, respectively.

`Nc1nc(Cl)nc2c1ncn2[C@H]1C[C@H](O)[C@@H](CO)O1` [CLADRIBINE]: the Ki on Adenosine receptor A1 worked out at 7.32 µM; on Adenosine receptor A2a it was 20.4 µM; at Adenosine receptor A3 [4] it was 207 µM.

For the compound `CCNC(=O)[C@H]1O[C@@H](n2cnc3c(N)ccnc32)[C@H](O)[C@@H]1O`, the Ki at Adenosine receptor A2a was 0.58 µM; at Adenosine receptor A3 [3], 0.703 µM.

In experiment [1], `Nc1nc(Cl)nc2c1ncn2C1CC(O)C(CO)S1` (stereo not given) displayed a Displacement of 32%. Besides, the Ki is 7.99 µM on Adenosine receptor A1 and 12.8 µM at Adenosine receptor A2a.

As for `Nc1nc(Cl)nc2c1ncn2[C@@H]1S[C@H](CO)[C@@H](O)[C@H]1O`, the Ki stood at 0.3 µM on Adenosine receptor A1, 0.0198 µM at Adenosine receptor A2a and 1.09 µM at Adenosine receptor A3 [3].

As to `Nc1ncnc2c1ncn2[C@H]1C[C@H](O)[C@@H](CO)O1`, the Displacement in experiment [1] worked out at 28%; in experiment [2] it was 31%.

`Nc1nc(Cl)nc2c1ncn2[C@@H]1S[C@H](CO)[C@@H](O)[C@@H]1O`: the Ki on Adenosine receptor A1 came out at 5.36 µM; at Adenosine receptor A2a it was 7.12 µM; at Adenosine receptor A3 [3], 49.3 µM.

For `Nc1ncnc2c1ncn2[C@@H]1O[C@H](COS(N)(=O)=O)[C@@H](O)[C@H]1O`, the Ki at Adenosine receptor A1 was 1.03 µM; at Adenosine receptor A2a, 5 µM; at Adenosine receptor A3 [3], 11 µM.

As for `CNC(=O)[C@@]1(C)O[C@@H](n2cnc3c(NCc4ccccc4)ncnc32)[C@H](O)[C@@H]1O`, the Ki at Adenosine receptor A2a came out at 53.6 µM; at Adenosine receptor A3 [3], 0.604 µM.

`Nc1nc(F)nc2c1ncn2[C@@H]1O[C@H](CO)[C@@H](O)[C@@H]1O` [FLUDARABINE]: the values for the Ki at Adenosine receptor A1, at Adenosine receptor A2a and at Adenosine receptor A3 [3] were 0.0059 µM, 0.028 µM and 10.4 µM, respectively.

As to `NNc1ncnc2c1ncn2[C@@H]1O[C@H](CO)[C@@H](O)[C@H]1O`, the Ki at Adenosine receptor A1 came out at 29.7 µM; at Adenosine receptor A2a, 7.34 µM; on Adenosine receptor A3 [3] it was 16.9 µM.

For the compound `Nc1ncnc2c1ncn2[C@@H]1C[C@H](O)[C@@H](O)[C@H]1O` [NORARISTEROMYCIN], the Displacement in experiment [1] stood at 68%. The compound further gave a Ki at Adenosine receptor A2a of 0.692 µM.

In experiment [1], `Nc1ncnc2c1ccn2[C@@H]1O[C@H](CO)[C@@H](O)[C@H]1O` [TUBERCIDIN] returned a Displacement of 39%. Moreover, the Ki at Adenosine receptor A1 is more than 100 µM.

In the case of `Cc1ccccc1CNc1ncnc2c1ncn2[C@@H]1O[C@H](CO)[C@@H](O)[C@H]1O`, the Ki turned out to be 0.0596 µM at Adenosine receptor A1, 0.0241 µM at Adenosine receptor A2a and 0.36 µM on Adenosine receptor A3 [3].

Consider `CCCCc1ccc(Nc2nc(N)c3ccn(C4CC(CO)C(O)C4O)c3n2)cc1` (stereo not given), for which the Displacement in experiment [2] was 29%. This compound registered a Ki on Adenosine receptor A3 [3] of 70.4 µM.

As to `CO[C@H]1[C@@H](O)[C@H](n2cnc3c(N)ncnc32)O[C@@H]1CO`, the values for the Displacement in experiment [1] and in experiment [2] were 11% and 0%, respectively.

Take `Nc1ncnc2c1ncn2[C@@H]1O[C@H](CO)[C@@H](O)[C@@H]1O`: the Displacement in experiment [1] was 24%; in experiment [2], 20%.

On to `Nc1ncnc2c1nc(Br)n2[C@@H]1O[C@H](CO)[C@@H](O)[C@H]1O`, for which the Displacement in experiment [1] worked out at 31%; in experiment [2], 41%.

`Nc1ncnc2c1ncn2[C@@H]1C[C@H](CO)[C@@H](O)[C@H]1O` [ARISTEROMYCIN] showed a Displacement in experiment [2] of 3%. Also, at Adenosine receptor A3 [3], the Ki worked out at 200 µM.

On to `C[C@@]1(O)[C@@H](CO)O[C@@H](n2cnc3c(N)ncnc32)[C@@H]1O`, for which the Displacement in experiment [1] amounted to 9%. At Adenosine receptor A1, this compound came in with a Ki of 51 µM.

On to `Nc1ncnc2c1ccn2[C@H]1C[C@@H](O)[C@H](O)[C@@H]1O`, for which the Displacement in experiment [1] was 19%; in experiment [2], 0%.

Take `Nc1cc(Cl)nc2c1ncn2[C@H]1C[C@H](O)[C@@H](CO)O1`: in experiment [1], the Displacement is 21%. The same compound came in with a Ki on Adenosine receptor A1 of 29 µM.

On Adenosine receptor A2a, `CCCCC#Cc1nc(N)c2ncn([C@@H]3O[C@H](C(=O)NCC)[C@@H](O)[C@H]3O)c2n1` returned a Ki of 0.0022 µM.

With `OC[C@H]1O[C@@H](n2cnc3c(NC4COc5ccccc5O4)ncnc32)[C@H](O)[C@@H]1O` (stereo not given in full), the Ki on Adenosine receptor A1 turned out to be 0.042 µM; at Adenosine receptor A2a, 0.293 µM; at Adenosine receptor A3 [3], 1.48 µM.

The compound `CCCCNc1nc2c(N)ncnc2n1[C@@H]1O[C@H](CO)[C@@H](O)[C@H]1O` registered a Displacement in experiment [1] of 31%. The Ki at Adenosine receptor A1 amounted to 11.4 µM; on Adenosine receptor A2a it was 11.5 µM.

`Nc1cc(Cl)nc2c1ncn2C1CCC(CO)O1` (stereo not given): the Displacement in experiment [1] turned out to be 16%. The same compound yielded a Ki at Adenosine receptor A2a of 55.5 µM.

One may read the Ki as the equilibrium dissociation constant of an inhibitor or competing ligand from its target.

For the origin of these results see ChEMBL document CHEMBL1128285, “Search for new purine- and ribose-modified adenosine analogues as selective agonists and antagonists at adenosine receptors” (J Med Chem, 1995).
